How the values were obtained:
[1] = system: blackgrass; assay: Test Example 4: herbicidal effect by soil treatment (Table 19, symbol J); format: in vivo, blackgrass (Alopecurus myosuroides); conditions: amount of applied herbicide 320 g/ha
How it was run: (§1)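 In this soil treatment, the formulated compound reached the seeds only through the soil: seeds were buried about 1.5 cm deep in sterilized diluvial soil, then the diluted emulsion was sprayed over the surface. After three weeks at 25° C. to 30° C. in a greenhouse, effects were graded on criteria from an earlier test.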

[2] = system: green foxtail; assay: Test Example 4: herbicidal effect by soil treatment (Table 19, symbol G); format: in vivo, green foxtail (Setaria viridis); conditions: amount of applied herbicide 320 g/ha
How it was run: as §1

[3] = system: Italian ryegrass; assay: Test Example 4: herbicidal effect by soil treatment (Table 19, symbol K); format: in vivo, Italian ryegrass (Lolium multiflorum); conditions: amount of applied herbicide 320 g/ha
How it was run: as §1

[4] = system: lambsquarters; assay: Test Example 5: herbicidal effect by foliage application, plastic box (Table 20, symbol O); format: in vivo, lambsquarters (Chenopodium album); conditions: foliage application, evaluated three weeks after application
How it was run: (§2)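 Plants were sown into sterilized diluvial soil under about 1.5 cm cover and kept in a greenhouse at 25° C. to 30° C. Fourteen days on, foliage received an even spray of the diluted emulsion. Herbicidal or crop effect was judged three weeks afterwards.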

[5] = system: velvetleaf; assay: Test Example 5: herbicidal effect by foliage application, plastic box (Table 20, symbol M); format: in vivo, velvetleaf (Abutilon theophrasti); conditions: foliage application, evaluated three weeks after application
How it was run: as §2

[6] = system: barnyard grass; assay: Test Example 5: herbicidal effect by foliage application, plastic box (Table 20, symbol H); format: in vivo, barnyard grass (Echinochloa crus-galli); conditions: foliage application, evaluated three weeks after application
How it was run: as §2

[7] = system: redroot pigweed; assay: Test Example 4: herbicidal effect by soil treatment (Table 19, symbol N); format: in vivo, redroot pigweed (Amaranthus retroflexus); conditions: amount of applied herbicide 320 g/ha
How it was run: as §1

[8] = system: barnyard grass; assay: Test Example 4: herbicidal effect by soil treatment (Table 19, symbol H); format: in vivo, barnyard grass (Echinochloa crus-galli); conditions: amount of applied herbicide 320 g/ha
How it was run: as §1

[9] = system: persian speedwell; assay: Test Example 5: herbicidal effect by foliage application, plastic box (Table 20, symbol R); format: in vivo, Persian speedwell (Veronica persica); conditions: foliage application, evaluated three weeks after application
How it was run: as §2

[10] = system: persian speedwell; assay: Test Example 4: herbicidal effect by soil treatment (Table 19, symbol R); format: in vivo, Persian speedwell (Veronica persica); conditions: amount of applied herbicide 320 g/ha
How it was run: as §1

[11] = system: windgrass; assay: Test Example 4: herbicidal effect by soil treatment (Table 19, symbol L); format: in vivo, windgrass (Apera spica-venti); conditions: amount of applied herbicide 320 g/ha
How it was run: as §1

[12] = system: redroot pigweed; assay: Test Example 5: herbicidal effect by foliage application, plastic box (Table 20, symbol N); format: in vivo, redroot pigweed (Amaranthus retroflexus); conditions: foliage application, evaluated three weeks after application
How it was run: as §2

[13] = system: wild oat; assay: Test Example 5: herbicidal effect by foliage application, plastic box (Table 20, symbol I); format: in vivo, wild oat (Avena fatua); conditions: foliage application, evaluated three weeks after application
How it was run: as §2

[14] = system: chickweed; assay: Test Example 5: herbicidal effect by foliage application, plastic box (Table 20, symbol P); format: in vivo, common chickweed (Stellaria media); conditions: foliage application, evaluated three weeks after application
How it was run: as §2

[15] = system: Chinese sprangletop; assay: Test Example 3: herbicidal effect by foliage application, Wagner pot (Table 18, symbol D); format: in vivo, chinese sprangletop (Leptochloa chinensis); conditions: amount of applied herbicide 320 g/ha
How it was run: (§3)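 Plants were sown in alluvial soil held under 0.1–0.5 cm standing water and grown 14 days in a greenhouse at 25–30 °C. An emulsifiable formulation, water-diluted to the set dose, was then sprayed onto the foliage, and effects were scored three weeks later using previously defined criteria.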

[16] = system: wild oat; assay: Test Example 4: herbicidal effect by soil treatment (Table 19, symbol I); format: in vivo, wild oat (Avena fatua); conditions: amount of applied herbicide 320 g/ha
How it was run: as §1

[17] = system: velvetleaf; assay: Test Example 4: herbicidal effect by soil treatment (Table 19, symbol M); format: in vivo, velvetleaf (Abutilon theophrasti); conditions: amount of applied herbicide 320 g/ha
How it was run: as §1

[18] = system: rice flat sedge; assay: Test Example 3: herbicidal effect by foliage application, Wagner pot (Table 18, symbol E); format: in vivo, rice flat sedge (Cyperus iria); conditions: amount of applied herbicide 320 g/ha
How it was run: as §3

[19] = system: blackgrass; assay: Test Example 5: herbicidal effect by foliage application, plastic box (Table 20, symbol J); format: in vivo, blackgrass (Alopecurus myosuroides); conditions: foliage application, evaluated three weeks after application
How it was run: as §2

[20] = system: Italian ryegrass; assay: Test Example 5: herbicidal effect by foliage application, plastic box (Table 20, symbol K); format: in vivo, Italian ryegrass (Lolium multiflorum); conditions: foliage application, evaluated three weeks after application
How it was run: as §2

[21] = system: false cleavers; assay: Test Example 4: herbicidal effect by soil treatment (Table 19, symbol Q); format: in vivo, false cleavers (Galium spurium); conditions: amount of applied herbicide 320 g/ha
How it was run: as §1

[22] = system: green foxtail; assay: Test Example 5: herbicidal effect by foliage application, plastic box (Table 20, symbol G); format: in vivo, green foxtail (Setaria viridis); conditions: foliage application, evaluated three weeks after application
How it was run: as §2

[23] = system: barnyard grass; assay: Test Example 3: herbicidal effect by foliage application, Wagner pot (Table 18, symbol H); format: in vivo, barnyard grass (Echinochloa crus-galli); conditions: amount of applied herbicide 320 g/ha
How it was run: as §3

[24] = system: southern crabgrass; assay: Test Example 5: herbicidal effect by foliage application, plastic box (Table 20, symbol F); format: in vivo, southern crabgrass (Digitaria ciliaris); conditions: foliage application, evaluated three weeks after application
How it was run: as §2

[25] = system: windgrass; assay: Test Example 5: herbicidal effect by foliage application, plastic box (Table 20, symbol L); format: in vivo, windgrass (Apera spica-venti); conditions: foliage application, evaluated three weeks after application
How it was run: as §2

[26] = system: lambsquarters; assay: Test Example 4: herbicidal effect by soil treatment (Table 19, symbol O); format: in vivo, lambsquarters (Chenopodium album); conditions: amount of applied herbicide 320 g/ha
How it was run: as §1

[27] = system: southern crabgrass; assay: Test Example 4: herbicidal effect by soil treatment (Table 19, symbol F); format: in vivo, southern crabgrass (Digitaria ciliaris); conditions: amount of applied herbicide 320 g/ha
How it was run: as §1

[28] = system: chickweed; assay: Test Example 4: herbicidal effect by soil treatment (Table 19, symbol P); format: in vivo, common chickweed (Stellaria media); conditions: amount of applied herbicide 320 g/ha
How it was run: as §1

SMILES: COc1cc(F)ccc1-c1sc2ccc(C(C)=NOC(C)C)cc2c1-c1c(O)c(C)nn(C)c1=O [2-195]
- J: blackgrass, herbicidal effect rating [1]: 0 (Herbicidal rate of 5% or less (almost no effect))
- G: green foxtail, herbicidal effect rating [2]: 0 (Herbicidal rate of 5% or less (almost no effect))
- K: Italian ryegrass, herbicidal effect rating [3]: 0 (Herbicidal rate of 5% or less (almost no effect))
- herbicidal effect on O: lambsquarters (criteria 0-5) ([4]; 320 g/ha): 4 (Herbicidal rate of 70% or more and less than 90%)
- herbicidal effect on M: velvetleaf (criteria 0-5) ([5]; 320 g/ha): 2 (Herbicidal rate of 20% or more and less than 40%)
- herbicidal effect on H: barnyard grass (criteria 0-5) ([6]; 320 g/ha): 2 (Herbicidal rate of 20% or more and less than 40%)
- N: redroot pigweed, herbicidal effect rating [7]: 3 (Herbicidal rate of 40% or more and less than 70%)
- H: barnyard grass, herbicidal effect rating [8]: 0 (Herbicidal rate of 5% or less (almost no effect))
- herbicidal effect on R: persian speedwell (criteria 0-5) ([9]; 320 g/ha): 5 (Herbicidal rate of 90% or more (almost completely withered))
- R: persian speedwell, herbicidal effect rating [10]: 4 (Herbicidal rate of 70% or more and less than 90%)
- L: windgrass, herbicidal effect rating [11]: 0 (Herbicidal rate of 5% or less (almost no effect))
- herbicidal effect on N: redroot pigweed (criteria 0-5) ([12]; 320 g/ha): 3 (Herbicidal rate of 40% or more and less than 70%)
- herbicidal effect on I: wild oat (criteria 0-5) ([13]; 320 g/ha): 0 (Herbicidal rate of 5% or less (almost no effect))
- herbicidal effect on P: chickweed (criteria 0-5) ([14]; 320 g/ha): 5 (Herbicidal rate of 90% or more (almost completely withered))
- herbicidal effect on D: Chinese sprangletop [15]: 0 (Herbicidal rate of 5% or less (almost no effect))
- I: wild oat, herbicidal effect rating [16]: 0 (Herbicidal rate of 5% or less (almost no effect))
- M: velvetleaf, herbicidal effect rating [17]: 0 (Herbicidal rate of 5% or less (almost no effect))
- herbicidal effect on E: rice flat sedge [18]: 0 (Herbicidal rate of 5% or less (almost no effect))
- herbicidal effect on J: blackgrass (criteria 0-5) ([19]; 320 g/ha): 4 (Herbicidal rate of 70% or more and less than 90%)
- herbicidal effect on K: Italian ryegrass (criteria 0-5) ([20]; 320 g/ha): 0 (Herbicidal rate of 5% or less (almost no effect))
- Q: false cleavers, herbicidal effect rating [21]: 0 (Herbicidal rate of 5% or less (almost no effect))
- herbicidal effect on G: green foxtail (criteria 0-5) ([22]; 320 g/ha): 0 (Herbicidal rate of 5% or less (almost no effect))
- herbicidal effect on H: barnyard grass [23]: 3 (Herbicidal rate of 40% or more and less than 70%)
- herbicidal effect on F: southern crabgrass (criteria 0-5) ([24]; 320 g/ha): 2 (Herbicidal rate of 20% or more and less than 40%)
- herbicidal effect on L: windgrass (criteria 0-5) ([25]; 320 g/ha): 0 (Herbicidal rate of 5% or less (almost no effect))
- O: lambsquarters, herbicidal effect rating [26]: 3 (Herbicidal rate of 40% or more and less than 70%)
- F: southern crabgrass, herbicidal effect rating [27]: 0 (Herbicidal rate of 5% or less (almost no effect))
- P: chickweed, herbicidal effect rating [28]: 0 (Herbicidal rate of 5% or less (almost no effect))

SMILES: Cc1nn(C)c(=O)c(-c2c(-c3ccc(OC(F)F)cc3)sc3ccc(F)cc23)c1OC(=O)N1CCOCC1 [2-290]
- herbicidal effect on J: blackgrass [1]: 0 (Herbicidal rate of 5% or less (almost no effect))
- herbicidal effect on G: green foxtail [2]: 0 (Herbicidal rate of 5% or less (almost no effect))
- herbicidal effect on K: Italian ryegrass [3]: 0 (Herbicidal rate of 5% or less (almost no effect))
- O: lambsquarters, herbicidal effect (criteria 0-5) ([4]; AAH 320 g/ha): 5 (Herbicidal rate of 90% or more (almost completely withered))
- M: velvetleaf, herbicidal effect (criteria 0-5) ([5]; AAH 320 g/ha): 4 (Herbicidal rate of 70% or more and less than 90%)
- H: barnyard grass, herbicidal effect (criteria 0-5) ([6]; AAH 320 g/ha): 2 (Herbicidal rate of 20% or more and less than 40%)
- herbicidal effect on N: redroot pigweed [7]: 1 (Herbicidal rate of 5% or more and less than 20%)
- herbicidal effect on H: barnyard grass [8]: 0 (Herbicidal rate of 5% or less (almost no effect))
- R: persian speedwell, herbicidal effect (criteria 0-5) ([9]; AAH 320 g/ha): 5 (Herbicidal rate of 90% or more (almost completely withered))
- herbicidal effect on R: persian speedwell [10]: 3 (Herbicidal rate of 40% or more and less than 70%)
- herbicidal effect on L: windgrass [11]: 0 (Herbicidal rate of 5% or less (almost no effect))
- N: redroot pigweed, herbicidal effect (criteria 0-5) ([12]; AAH 320 g/ha): 5 (Herbicidal rate of 90% or more (almost completely withered))
- I: wild oat, herbicidal effect (criteria 0-5) ([13]; AAH 320 g/ha): 0 (Herbicidal rate of 5% or less (almost no effect))
- P: chickweed, herbicidal effect (criteria 0-5) ([14]; AAH 320 g/ha): 5 (Herbicidal rate of 90% or more (almost completely withered))
- herbicidal effect on D: Chinese sprangletop [15]: 4 (Herbicidal rate of 70% or more and less than 90%)
- herbicidal effect on I: wild oat [16]: 0 (Herbicidal rate of 5% or less (almost no effect))
- herbicidal effect on M: velvetleaf [17]: 0 (Herbicidal rate of 5% or less (almost no effect))
- herbicidal effect on E: rice flat sedge [18]: 3 (Herbicidal rate of 40% or more and less than 70%)
- J: blackgrass, herbicidal effect (criteria 0-5) ([19]; AAH 320 g/ha): 0 (Herbicidal rate of 5% or less (almost no effect))
- K: Italian ryegrass, herbicidal effect (criteria 0-5) ([20]; AAH 320 g/ha): 0 (Herbicidal rate of 5% or less (almost no effect))
- herbicidal effect on Q: false cleavers [21]: 0 (Herbicidal rate of 5% or less (almost no effect))
- G: green foxtail, herbicidal effect (criteria 0-5) ([22]; AAH 320 g/ha): 2 (Herbicidal rate of 20% or more and less than 40%)
- herbicidal effect on H: barnyard grass [23]: 4 (Herbicidal rate of 70% or more and less than 90%)
- F: southern crabgrass, herbicidal effect (criteria 0-5) ([24]; AAH 320 g/ha): 0 (Herbicidal rate of 5% or less (almost no effect))
- L: windgrass, herbicidal effect (criteria 0-5) ([25]; AAH 320 g/ha): 0 (Herbicidal rate of 5% or less (almost no effect))
- herbicidal effect on O: lambsquarters [26]: 3 (Herbicidal rate of 40% or more and less than 70%)
- herbicidal effect on F: southern crabgrass [27]: 0 (Herbicidal rate of 5% or less (almost no effect))
- herbicidal effect on P: chickweed [28]: 0 (Herbicidal rate of 5% or less (almost no effect))
